Experimental data: patent US8053436B1, “9-(piperazinylalkyl) carbazoles as bax-modulators” (Merck Serono SA, priority 1999, dated 2011)
Counter-ions that a name gives are not always drawn.

Tests used:
[1] = biological target: T1, Bid-induced Bax activation (mitochondria isolated from HeLa cells) (Homo sapiens, UniProt Q07812); test: Mitochondria cytochrome c release triggered by Bid-induced Bax activation; assay type: biochemical; settings: Compounds were tested at 10 μM, 10 nM recombinant Bid
T1 construct: endogenous in cells; host or cells: mitochondria isolated from HeLa cells
T1 sequence (Q07812 whole entry): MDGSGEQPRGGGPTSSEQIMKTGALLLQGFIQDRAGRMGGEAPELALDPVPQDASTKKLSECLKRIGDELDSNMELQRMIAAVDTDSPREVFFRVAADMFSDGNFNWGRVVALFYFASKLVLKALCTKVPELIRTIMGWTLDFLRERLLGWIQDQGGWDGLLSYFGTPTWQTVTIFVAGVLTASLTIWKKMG
Procedure: d) Effect of Compounds according to formula I onto the Release of Cytochrome c Triggered by Bid-Induced Bax Activation (Mitochondria Cytochrome c Release Triggered by Bid-Induced Bax Activation)
Mitochondria isolated from HeLa cells are incubated for 15 min at 30° C. in […] of KCl buffer in the presence or absence of 10 nM recombinant Bid. The various compounds (10 μM) are pre-incubated for 5 min prior to addition of Bid. Following incubation, mitochondria were centrifuged for 5 min at 13000 g at 4° C. and the supernatant is collected for cytochrome c analysis. Cytochrome c is detected by Western blotting. The cytochrome c bands are scanned and quantified using a Bio-Rad (GS-700 Imaging Densitometer).
(§1) The above set out 2 in vitro assays c) and d) involving the determination of mitochondrial cytochrome c release are based on immunochemical methods using the Western blot analysis. Alternatively, said quantitative cytochrome c determinations could be performed by using spectrophotometric means: • I. by recording the difference between reduced and oxidised cytochrome c by dual wavelength double beam spectrophotometry; • by measuring the rather intensive γ or Soret peak in the spectrum of cytochrome c (ε=100 mM^−1 cm^−1) is used for rapid and quantitative determination of the release of cytochrome c from isolated mitochondria.

[2] = tested on: Sympathetic neurons from superior cervical ganglia (SCG) of newborn rats; test: Sympathetic neuron culture and survival assay (neuronal survival); assay type: cell-based; settings: Compounds were tested at 10 μM; rat SCG neurons, NGF deprivation (anti NGF antibody), MTT 24 hours after cell death induction
Description: as §1
Cell death is induced at day 4 after plating by exposing the culture to medium containing 10 µg/ml of anti NGF antibody (Boehringer Mannheim Corp., Indianapolis, Ind.) and no NGF or arabinosine, in the presence or absence of piperazine derivatives of carbazole inhibitors according to formula I. 24 hours after cell death induction, determination of cell viability is performed by incubation of the culture for 1 hour, at 37° C. in 0.5 mg/ml of 3-(4,5-dimethyl-thiazol-2-yl)2,5diphenyl tetrazolium bromide (MTT). After incubation in MTT, cells are re-suspended in DMSO, transferred to a 96 MTT plate and cell viability is evaluated by measuring optical density at 590 nm.

[3] = biological target: T2, recombinant Bax (Human Bax-α), mitochondria from mouse liver (Homo sapiens, UniProt Q07812); test: In vitro assay for cytochrome c release (mitochondria cytochrome c release triggered by Bax activation); assay type: biochemical; settings: Compounds were tested at 5 μM, 200 nM recombinant Bax
T2 construct: Human Bax-α lacking 20 amino acids at the COOH-terminus; GST (cleaved yes); His-tag (alternative construct); made in house; host or cells: Escherichia coli
T2 sequence (Q07812 1-172 limits assumed): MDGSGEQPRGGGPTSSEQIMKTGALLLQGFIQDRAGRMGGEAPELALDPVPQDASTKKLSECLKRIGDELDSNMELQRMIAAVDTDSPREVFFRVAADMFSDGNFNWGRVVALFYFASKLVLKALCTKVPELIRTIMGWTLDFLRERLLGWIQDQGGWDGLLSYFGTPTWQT
Description: The cytochrome c bands are scanned and quantified using a Bio-Rad (GS-700 Imaging Densitometer).
as §1

melting point | SMILES | Neuronal Survival (%) [2] [%] | further results
 | FC(F)(CN1CCNCC1)Cn1c2ccc(Br)cc2c2cc(Br)ccc21 (racemic) [Example 80, (±)-3,6-Dibromo-9-(2,2-difluoro-3-piperazin-1-ylpropyl)-carbazole] | 20 | inhibition at 10 µM [1]: 73%
188 °C | OC(CN1CCN(Cc2ccc(F)cc2)CC1)Cn1c2ccccc2c2cc(-c3ccccc3)ccc21 (racemic) (as salt: HCl) [Example 24, (±)-1-[4-(4-Fluoro-benzyl)-piperazin-1-yl]-3-(3-phenyl-carbazol-9-yl)-propan-2-ol] |  | 
251 °C (dec.) | OC(CN1CCN(Cc2ccc(F)cc2)CC1)Cn1c2ccccc2c2ccccc21 (racemic) (as salt: HCl) [Example 22, (±)-1-Carbazol-9-yl-3-[4-(4-fluoro-benzyl)-piperazin-1-yl]-propan-2-ol] |  | 
 | OC(CN1CCN(Cc2ccsc2)CC1)Cn1c2ccc(Br)cc2c2cc(Br)ccc21 (racemic) [Example 60, (±)-1-(3,6-Dibromocarbazol-9-yl)-3-[4-(thien-3-ylmethyl)piperazin-1-yl]propan-2-ol] | 40 | inhibition at 10 µM [1]: 60%
253 °C (dec.) | O=S(=O)(Cc1ccccc1)N1CCN(CC(O)Cn2c3ccc(Br)cc3c3cc(Br)ccc32)CC1 (racemic) (as salt: hydrochloride) [Example 71, (±)-1-[4-(Benzylsulfonyl)piperazin-1-yl]-3-(3,6-dibromo-carbazol-9yl)propan-2-ol] |  | 
265 °C | OC(CN1CCN(CCCc2ccccc2)CC1)Cn1c2ccccc2c2ccccc21 (racemic) (as salt: HCl) [Example 31, (±)-1-Carbazol-9-yl-3-[4-(3-phenyl-propyl)-piperazin-1-yl]-propan-2-ol] |  | 
70 to 75 °C | OC(CN1CCN(Cc2ccccc2)CC1)Cn1c2ccc(Br)cc2c2cc(Br)ccc21 (racemic) [Example 6, (±)-1-(4-Benzyl-piperazin-1-yl)-3-(3,6-dibromo-carbazol-9-yl)-propan-2-ol] |  | 
265 to 270 °C (dec.) | OC(CN1CCN(CC2CCCCC2)CC1)Cn1c2ccccc2c2cc(-c3ccccc3)ccc21 (racemic) (as salt: hydrochloride) [Example 66, (±)-1-(4-Cyclohexylmethylpiperazin-1-yl)-3-(3-phenylcarbazol-9-yl)-propan-2-ol] |  | 
261 °C (dec.) | O=C(CN1CCN(CC2CCCCC2)CC1)Cn1c2ccc(Br)cc2c2cc(Br)ccc21 (as salt: hydrochloride) [Example 109, (±)-1-[4-(cyclohexylmethyl)piperazin-1-yl]-3-(3,6-dibromocarbazol-9-yl)acetone] |  | 
153 °C | O=C(c1ccccc1)N1CCN(CC(O)Cn2c3ccccc3c3ccccc32)CC1 (racemic) (as salt: HCl) [Example 36, (±)-1-[4-(3-Carbazol-9-yl-2-hydroxy-propyl)-piperazin-1-yl]-1-phenyl-methanone] |  | 
 | OC(CN1CCN(CCN2CCOCC2)CC1)Cn1c2ccc(Cl)cc2c2cc(Cl)ccc21 (racemic) [Example 110, (±)-1-(3,6-Dichlorocarbazol-9-yl)-3-[4-(2-morpholin-4-ethyl)piperazin-1-yl]propan-2-ol] | 30 | Mitochondria Cytochrome c Release Triggered by Bid-Induced Bax Activation (% Inhibition) [1]: 87%
295 °C (dec.) | N#Cc1ccc2c(c1)c1cc(C#N)ccc1n2CC(O)CN1CCNCC1 (racemic) (as salt: HCl) [Example 25, (±)-9-(2-Hydroxy-3-piperazin-1-yl-propyl)-carbazole-3,6-dicarbonitrile] |  | 
231 °C (dec.) | O=C(CN1CCN(CC2CCCCC2)CC1)Cn1c2ccccc2c2cc(-c3ccccc3)ccc21 (as salt: hydrochloride) [Example 111, (±)-1-[4-(Cyclohexylmethyl)piperazin-1-yl]-3-(3-phenylcarbazol-9-yl)acetone] |  | 
302 °C (dec.) | OC(CN1CCN(CC2CCCCC2)CC1)Cn1c2ccc(Cl)cc2c2cc(Cl)ccc21 (racemic) (as salt: hydrochloride) [Example 76, (±)-1-[4-(Cyclohexylmethyl)piperazin-1-yl]-3-(3,6-dichloro-carbazol-9-yl)propan-2-ol] |  | 
239 °C (dec.) | Cc1ccc2c3ccccc3n(CC(O)CN3CCN(Cc4ccccc4)CC3)c2c1 (racemic) (as salt: hydrochloride) [Example 1, (±)-1-(4-Benzyl-piperazin-1-yl)-3-(2-methyl-carbazol-9-yl)-propan-2-ol] |  | 
 | OC(CN1CCN(Cc2ccc(F)cc2)CC1)Cn1c2ccc(Br)cc2c2cc(Br)ccc21 (racemic) [Example 23, (±)-1-(3,6-Dibromo-carbazol-9-yl)-3-[4-(4-fluoro-benzyl)-piperazin-1-yl]-propan-2-ol] | 45 | inhibition at 10 µM [1]: 68%; inhibition at 5 µM [3]: 51%
 | COc1ccc(CN2CCN(CC(O)Cn3c4ccc(Br)cc4c4cc(Br)ccc43)CC2)cc1 (racemic) [Example 62, (±)-1-(3,6-Dibromocarbazol-9-yl)-3-[4-(4-methoxybenzyl)piperazin-1-yl]propan-2-ol] | 30 | inhibition at 10 µM [1]: 99%
 | OC(CN1CCN(CC2CCCCC2)CC1)Cn1c2ccc(Br)cc2c2cc(Br)ccc21 (racemic) [Example 45, (±)−1-4-Cyclohexylmethylpiperazin-1-yl)-3-(3,6-dibromo-carbazol-9-yl)-propan-2-ol] | 60 | Mitochondria Cytochrome c Release Triggered by Bid-Induced Bax Activation (% Inhibition) [1]: 37%
 | OC(CN1CCN(CCN2CCOCC2)CC1)Cn1c2ccc(Br)cc2c2cc(Br)ccc21 (racemic) [Example 73, (±)-1-(3,6-Dibromo-carbazol-9-yl)-3-[4-(2-morpholin-4-ethyl)piperazin-1-yl]propan-2-ol] | 30 | Mitochondria Cytochrome c Release Triggered by Bid-Induced Bax Activation (% Inhibition) [1]: 74%
287 °C (dec.) | OC(CN1CCN(Cc2ccc(Cl)c(Cl)c2)CC1)Cn1c2ccc(Br)cc2c2cc(Br)ccc21 (racemic) (as salt: hydrochloride) [Example 72, (±)-1-(3,6-Dibromo-carbazol-9-yl)-3-[4-(3,4-dichlorobenzyl)piperazin-1-yl]propan-2-ol] |  | 
192 °C (dec.) | OC(CN1CCN(Cc2ccnc3ccccc23)CC1)Cn1c2ccccc2c2cc(Br)ccc21 (racemic) (as salt: hydrochloride) [Example 106, (±)-1-(3-Bromocarbazol-9-yl)-3-[4-(quinolin-4-ylmethyl)piperazin-1-yl]propan-2-ol] |  | 
 | OC(CN1CCNCC1)Cn1c2ccccc2c2cc(-c3ccccc3)ccc21 (racemic) [Example 27, (±)-1-(3-Phenylcarbazol-9-yl)-3-piperazin-1-yl-propan-2-ol] | 40 | inhibition at 10 µM [1]: 88%; inhibition at 5 µM [3]: 40%
